One assay concerns HUVECs exposed to oxLDL. Briefly: NO and ONOO^− release from HUVECs exposed to oxLDL, nanosensors (Example 8). It counts as cell-based, human. The protocol: Human umbilical vein endothelial cells (HUVECs) were isolated into primary cultures from female donors by Clonetics (San Diego, Calif.) and purchased as proliferating cells. All cell culture donors were healthy, with no pregnancy or prenatal complications. […] The confluent cells (4 to 5×10^5 cells/35 mm dish) were placed with minimum essential medium containing 3 mM L-arginine and 0.1 mM BH4 [(6R)-5,6,7,8-tetrahydrobiopterin]. Before experimental use, the cells (from second or third passage) were rinsed twice with Tyrode-HEPES buffer with 1.8 mM CaCl2).
The omega-3 fatty acids (O3FAs) cis-5,8,11,14,17-eicosapentaenoic acid (EPA) and docosahexaenoic acid (DHA) were purchased from Sigma-Aldrich (St. Louis, Mo.) and prepared initially at 11 mM in redistilled ethanol. Primary and secondary O3FA stock solutions were prepared and stored under argon at −20° C.
The oxLDL causes eNOS uncoupling and endothelial dysfunction to reproduce disease-like conditions. 25 Venous blood from healthy normolipidemic volunteers was collected into Na-EDTA (1 mg/mL blood) vacuum tubes after a 12-hour fast. Plasma was immediately separated by centrifugation at 3,000 g for 10 minutes at 4° C.
Tris-NaCl buffer was added to the dialyzed LDL to adjust the protein concentration to 30 mg/mL. A 1-mL aliquot of 20 μM CuSO4 was added to 1 mL of dialyzed normal LDL.
Oxidation was monitored by the use of measurements of TBARS. Briefly, LDL was incubated with thiobarbituric acid (0.5 wt/vol, in H2SO4, 50 mM) for 30 minutes at 100° C. […] TBARS concentration was determined as malondialdehyde (MDA) equivalents with the use of an MDA standard curve.
Concurrent measurements of NO and ONOO^− were performed with tandem electrochemical nanosensors combined into one working unit with a total diameter of 200-400 nm. Their design was based on previously developed and chemically modified carbon-fiber technology. Each of the nanosensors was made by depositing a sensing material on the tip of a carbon fiber (length 4 to 5 μm, diameter 100-200 nm). The fibers were sealed with nonconductive epoxy and electrically connected to copper wires with conductive silver epoxy. Conductive films of polymeric Ni(II) tetrakis (3-methoxy-4-hydroxyphenyl) porphyrin and Mn(III) [2.2] paracyclophanylporphyrin were used for the NO and ONOO^− sensors, respectively.
The amperometric method (with a response time of 0.1 ms) provides a quantitative signal (current) that is directly proportional to changes (from basal levels) in NO or ONOO^− concentration. Amperometric measurements were performed with a Gamry III double-channel potentiostat. Basal NO or ONOO^− levels were measured by differential pulse voltammetry in separate experiments.
All measurements of NO and ONOO^− were performed on intact endothelial cells. The NO/ONOO^− nanosensor module was positioned 5±2 μm from the surface of each individual endothelial cell using a computer-controlled M3301 micromanipulator (x-y-z resolution of 0.2 μm) and microscope (both from World Precision Instruments, Berlin, Germany) fitted with a CD camera.
Endothelial basal media was used for all the treatments. Controls were supplied with an equivalent volume of endothelial basal media.
Data are presented as mean±S.D. for (N) separate samples or experiments. Differences between groups were analyzed using the two-tailed, Student t-test (for comparisons between only two groups) or ANOVA followed by Student-Newman-Keuls multiple comparisons post-hoc analysis (for comparisons between three or more groups). Only differences with probability values less than 0.05 were considered significant.

Another assay relates to unfractionated LDL. Briefly: Copper-induced oxidation of unfractionated LDL, TBARS after 2 hr (Example 6). The class given is biochemical, human.
The next assay has as its system human sdLDL. Briefly: Copper-induced sdLDL oxidation, TBARS after 2 hr (Example 6). The class given is biochemical. To be noted: for reduction of TBARS levels compared to vehicle-treated controls: 10 μM CuSO4. The protocol: An experiment to study the antioxidant effect of EPA in small dense […] performed. […] Vitamin E (α-tocopherol) was purchased from Sigma-Aldrich and prepared in ethanol at 1.0 mM (E=[…] cm^-1 at 294 nm) just prior to experimental use. All test compounds were further diluted in ethanol or aqueous buffer as needed. Venous blood was collected from healthy volunteers into vacutainer tubes containing sodium EDTA. Plasma was separated by centrifugation at 3000 g for 25 min at 4° C. and adjusted to a density of 1.020 g/mL with KBr. Triglyceride-rich lipoproteins (TGRL) and LDL fractions were then isolated by sequential centrifugation at 70,000 rpm at 4° C. in a Beckman LE-80 ultracentrifuge using a Beckman 50.4Ti rotor (Beckman Coulter, Inc., Fullerton, Calif.). The TGRL fraction (with a relative density of <1.020) was aspirated from the top of the centrifugate and discarded, leaving an LDL-enriched […] relative density of 1.020 to 1.063). […] The sdLDL subfraction was retained for additional experimentation. Plasma and lipoprotein fractions were maintained at 4° C. and protected from excessive exposure to light. Prior to oxidation experiments, EDTA was removed from the lipoprotein fraction using PD-10 desalting columns (GE Healthcare, Piscataway N.J.). After equilibration of the column with phosphate buffered saline (PBS), 2.5 mL of the lipoprotein fraction was loaded on the column and the flow-through discarded. The lipoprotein was then eluted with 3 mL of PBS. […] Data are presented as mean+S.D. for (N) separate samples or treatment groups. Differences between groups were analyzed using the two-tailed, Student's t-test (for comparisons between only two groups) or ANOVA followed by Dunnett or Student-Newman-Keuls multiple comparisons post-hoc analysis (for comparisons between three or more groups).

The mark [1] stands for this setting: oxLDL 20 min, then treatment for 1 hour, EPA 10 μM, ATM 1.0 μM.
The mark [2] stands for this setting: treatment 'EPA + oxLDL' (Table 1).

As for `CC/C=C\C/C=C\C/C=C\C/C=C\C/C=C\C/C=C\CCC(=O)O` [DHA, docosahexaenoic acid], in the assay with HUVECs exposed to oxLDL (setting [1]), the NO was 567 ± 103 nM, the “NO/ONOO^− Ratio” value was 3.39 ± 0.72 and the “ONOO^−” value stood at 167 ± 18.

With `CC/C=C\C/C=C\C/C=C\C/C=C\C/C=C\CCCC(=O)O` [EPA, cis-5,8,11,14,17-eicosapentaenoic acid], the “reduction of TBARS levels” value with unfractionated LDL (10.0 μM, unfractionated LDL) is 17%. In addition, the “increase in NO release in ECs exposed to oxLDL” value with HUVECs exposed to oxLDL (as compared to vehicle, EPA 10 μM, ATM 1.0 μM) was determined as 45%. In addition, in the assay with HUVECs exposed to oxLDL (setting [1]), the NO was 423 ± 163 nM, the “NO/ONOO^− Ratio” value was 2.24 ± 0.91 and the “ONOO^−” value was determined as 189 ± 25. Besides, in the assay with HUVECs exposed to oxLDL (setting [2]), the NO is 663 ± 50, the “NO/ONOO^− Ratio” value was 2.68 ± 0.28 and the “ONOO^−” value amounted to 247 ± 17. Moreover, the “reduction of TBARS levels compared to vehicle-treated controls” value (“reduction … to vehicle-treated controls” below) with human sdLDL (1.0 μM) came to 13%. In the assay on human sdLDL (10.0 μM), the “reduction … to vehicle-treated controls” value is given as 57%.

Turning to `Cc1ccc(C)c(OCCCC(C)(C)C(=O)O)c1` [gemfibrozil], in the assay with HUVECs exposed to oxLDL (setting [1]), the NO stood at 192 ± 34 nM, the “NO/ONOO^− Ratio” value came out at 0.72 ± 0.16 and the “ONOO^−” value amounted to 266 ± 34.

Regarding `O=C(O)c1cccnc1` [niacin, nicotinic acid], in the assay with HUVECs exposed to oxLDL (setting [1]), the NO is reported as 431 ± 100 nM, the “NO/ONOO^− Ratio” value worked out at 2.00 ± 0.52 and the “ONOO^−” value stood at 215 ± 25.

As to `Cc1c(C)c2c(c(C)c1O)CC[C@@](C)(CCC[C@H](C)CCC[C@H](C)CCCC(C)C)O2` [vitamin E, α-tocopherol], in the assay on unfractionated LDL (1.0 μM to 10.0 μM), the “effect on LDL oxidation” value is listed as “did not inhibit LDL oxidation at any concentration”. Besides, the “effect on sdLDL oxidation over the concentration range” value with human sdLDL (1.0 μM to 10.0 μM) is reported as “did not inhibit sdLDL oxidation except at the highest concentration”. Besides, in the assay on human sdLDL (10.0 μM), the “reduction … to vehicle-treated controls” value is given as 26%.

Source of the values: patent US20190054054A1, “Methods reducing or preventing oxidation of high density lipoprotein (HDL)” (Amarin Pharmaceuticals Ireland Limited, priority 2017, published 2019).
